Here are results for 29 compounds from US11661426B2, “Imidazole-containing inhibitors of ALK2 kinase” (BioCryst Pharmaceuticals, Inc., priority 2017, dated 2023).

Some results are limits rather than exact numbers.

ALK2, sequence (Q04771 21-509): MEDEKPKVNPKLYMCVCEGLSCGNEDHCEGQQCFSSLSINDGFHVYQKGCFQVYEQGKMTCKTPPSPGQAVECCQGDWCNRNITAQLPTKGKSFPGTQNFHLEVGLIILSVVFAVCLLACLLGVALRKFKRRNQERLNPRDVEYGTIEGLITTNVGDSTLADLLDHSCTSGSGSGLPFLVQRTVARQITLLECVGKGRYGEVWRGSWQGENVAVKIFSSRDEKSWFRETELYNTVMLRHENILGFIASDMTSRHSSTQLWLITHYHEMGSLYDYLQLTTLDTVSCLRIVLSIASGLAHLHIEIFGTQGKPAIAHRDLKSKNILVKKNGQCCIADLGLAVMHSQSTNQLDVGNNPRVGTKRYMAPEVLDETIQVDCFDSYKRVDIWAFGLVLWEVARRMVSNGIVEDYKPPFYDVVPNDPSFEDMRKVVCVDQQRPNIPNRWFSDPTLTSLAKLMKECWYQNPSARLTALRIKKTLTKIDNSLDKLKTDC

This test deals with ALK2 (Homo sapiens (Human), UniProt Q04771). Kind of test: ALK2 inhibition, LanthaScreen Eu Kinase Binding Assay (ThermoFisher Scientific / Life Technologies). The note with it: read-out: Measured Ki (IC50) Value for Compounds: IC50. As for the experimental part:
Biochemical assays to measure the inhibitory effects of the compounds were performed by ThermoFisher Scientific (Life Technologies). ALK2 inhibition was tested using LanthaScreen™ Eu Kinase Binding Assay screening protocol.
Turning to `COc1cc(-n2cnc(Nc3nc(N4CCC[C@H]4CO)nc4cccnc34)c2)cc(OC)c1OC` [Compound 140c, (S)-(1-(4-((1-(3,4,5-trimethoxyphenyl)-1H-imidazol-4-yl)amino)pyrido[3,2-d]pyrimidin-2-yl)pyrrolidin-2-yl)methanol], the IC50 is under 100 nM.

Turning to `COc1cc(-n2cnc(Nc3nc(N4CCC[C@H]4CO)nc4c3ccn4S(=O)(=O)c3ccc(C)cc3)c2)cc(OC)c1OC` [Compound 141c, (S)-(1-(7-tosyl-4-((1-(3,4,5-trimethoxyphenyl)-1H-imidazol-4-yl)amino)-7H-pyrrolo[2,3-d]pyrimidin-2-yl)pyrrolidin-2-yl)methanol], the IC50 is under 100 nM.

For the compound `COc1cc(-n2cnc(Nc3nc(N4CCC[C@H]4CO)nc4[nH]ccc34)c2)cc(OC)c1OC` [Compound 141d, (S)-(1-(4-((1-(3,4,5-trimethoxyphenyl)-1H-imidazol-4-yl)amino)-7H-pyrrolo[2,3-d]pyrimidin-2-yl)pyrrolidin-2-yl)methanol], the IC50 is under 100 nM.

As to `COc1cc(-n2cnc(Nc3nc(N4CCC[C@H]4C(N)=O)nc4c3ccn4S(=O)(=O)c3ccc(C)cc3)c2)cc(OC)c1OC` [Compound 142a, (S)-1-(7-tosyl-4-((1-(3,4,5-trimethoxyphenyl)-1H-imidazol-4-yl)amino)-7H-pyrrolo[2,3-d]pyrimidin-2-yl)pyrrolidine-2-carboxamide], the IC50 is under 100 nM.

Consider `COc1cc(-n2cnc(Nc3nc(N4CCC[C@H]4C(N)=O)nc4[nH]ccc34)c2)cc(OC)c1OC` [Compound 142b, (S)-1-(4-((1-(3,4,5-trimethoxyphenyl)-1H-imidazol-4-yl)amino)-7H-pyrrolo[2,3-d]pyrimidin-2-yl)pyrrolidine-2-carboxamide], for which the IC50 was under 100 nM.

As for `COc1cc(-n2cnc(Nc3nc(N4CCC[C@H]4C(N)=O)nc4c(OC(C)C)cccc34)c2)cc(OC)c1OC` [Compound 143h, (S)-1-(8-isopropoxy-4-((1-(3,4,5-trimethoxyphenyl)-1H-imidazol-4-yl)amino)quinazolin-2-yl)pyrrolidine-2-carboxamide], the half-inhibitory concentration (IC50) was under 100 nM.

With `COc1cc(-n2cnc(Nc3nc(N4CCC[C@H]4CO)nc4c(OC(C)C)cccc34)c2)cc(OC)c1OC` [Compound 144a, (S)-(1-(8-isopropoxy-4-((1-(3,4,5-trimethoxyphenyl)-1H-imidazol-4-yl)amino)quinazolin-2-yl)pyrrolidin-2-yl)methanol], the half-inhibitory concentration (IC50) is under 100 nM.

In the case of `COc1cc(-n2cnc(Nc3nc(N4CCC[C@H]4CO)nc4cc(OC(C)C)ccc34)c2)cc(OC)c1OC` [Compound 145h, (S)-(1-(7-isopropoxy-4-((1-(3,4,5-trimethoxyphenyl)-1H-imidazol-4-yl)amino)quinazolin-2-yl)pyrrolidin-2-yl)methanol], the IC50 is under 100 nM.

As for `COc1cc(-n2cnc(Nc3nc(-c4cccc(C(N)=O)c4)nc4sccc34)c2)cc(OC)c1OC` [Compound 146a, 3-(4-((1-(3,4,5-trimethoxyphenyl)-1H-imidazol-4-yl)amino)thieno[2,3-d]pyrimidin-2-yl)benzamide], the IC50 is under 100 nM.

`COc1cc(-n2cnc(Nc3nc(N4CCC[C@H]4C(N)=O)c4cccn4n3)c2)cc(OC)c1OC` [Compound 147b, (S)-1-(2-((1-(3,4,5-trimethoxyphenyl)-1H-imidazol-4-yl)amino)pyrrolo[2,1-f][1,2,4]triazin-4-yl)pyrrolidine-2-carboxamide]: the half-maximal inhibitory concentration (IC50) is over 1000 nM.

Regarding `COc1cc(-n2cnc(Nc3nc(N4CCC[C@H]4CO)c4occc4n3)c2)cc(OC)c1OC` [Compound 148b, (S)-(1-(2-((1-(3,4,5-trimethoxyphenyl)-1H-imidazol-4-yl)amino)furo[3,2-d]pyrimidin-4-yl)pyrrolidin-2-yl)methanol], the IC50 is under 100 nM.

As for `COc1cc(-n2cnc(Nc3nc(N4CCC[C@H]4CO)nc4c3CN(Cc3ccccc3)CC4)c2)cc(OC)c1OC` [Compound 149c, (S)-(1-(6-benzyl-4-((1-(3,4,5-trimethoxyphenyl)-1H-imidazol-4-yl)amino)-5,6,7,8-tetrahydropyrido[4,3-d]pyrimidin-2-yl)pyrrolidin-2-yl)methanol], the IC50 was 100 to 1000 nM.

On to `COc1cc(-n2cnc(Nc3nc(N4CCC[C@H]4CO)c4ncsc4n3)c2)cc(OC)c1OC` [Compound 150c, (S)-(1-(5-((1-(3,4,5-trimethoxyphenyl)-1H-imidazol-4-yl)amino)thiazolo[5,4-d]pyrimidin-7-yl)pyrrolidin-2-yl)methanol], for which the IC50 was under 100 nM.

Take `COc1cc(-n2cnc(Nc3nc(N4CCC[C@H]4C(N)=O)c4occc4n3)c2)cc(OC)c1OC` [Compound 151b, (S)-1-(2-((1-(3,4,5-trimethoxyphenyl)-1H-imidazol-4-yl)amino)furo[3,2-d]pyrimidin-4-yl)pyrrolidine-2-carboxamide]: the IC50 was 100 to 1000 nM.

`COc1cc(-n2cnc(Nc3nc(N4CCC[C@H]4C(N)=O)nc4c3CN(Cc3ccccc3)CC4)c2)cc(OC)c1OC` [Compound 152a, (S)-1-(6-benzyl-4-(1-(3,4,5-trimethoxyphenyl)-1H-imidazol-4-ylamino)-5,6,7,8-tetrahydropyrido[4,3-d]pyrimidin-2-yl)pyrrolidine-2-carboxamide]: the 50% inhibitory concentration (IC50) was 100 to 1000 nM.

Turning to `COc1cc(-n2cnc(Nc3nc(N4CCC[C@H]4CO)nc4c3CCN(Cc3ccccc3)C4)c2)cc(OC)c1OC` [Compound 153c, (S)-(1-(7-benzyl-4-((1-(3,4,5-trimethoxyphenyl)-1H-imidazol-4-yl)amino)-5,6,7,8-tetrahydropyrido[3,4-d]pyrimidin-2-yl)pyrrolidin-2-yl)methanol], the IC50 is under 100 nM.

Take `COc1cc(-n2cnc(Nc3nc(N4CCC[C@H]4C(N)=O)nc4c3CCN(Cc3ccccc3)C4)c2)cc(OC)c1OC` [Compound 154a, (S)-1-(7-benzyl-4-((1-(3,4,5-trimethoxyphenyl)-1H-imidazol-4-yl)amino)-5,6,7,8-tetrahydropyrido[3,4-d]pyrimidin-2-yl)pyrrolidine-2-carboxamide]: the 50% inhibitory concentration (IC50) is under 100 nM.

For `COc1cc(-n2cnc(Nc3nc(N4CCC[C@H]4C(N)=O)nc4sccc34)c2)cc(OC)c1OC` [Compound 155a, (S)-1-(4-((1-(3,4,5-trimethoxyphenyl)-1H-imidazol-4-yl)amino)thieno[2,3-d]pyrimidin-2-yl)pyrrolidine-2-carboxamide], the IC50 was under 100 nM.

Take `COc1cc(-n2cnc(Nc3nc(N4CCCC4)nn4cccc34)c2)cc(OC)c1OC` [Compound 156a, 2-(pyrrolidin-1-yl)-N-(1-(3,4,5-trimethoxyphenyl)-1H-imidazol-4-yl)pyrrolo[2,1-f][1,2,4]triazin-4-amine]: the IC50 is under 100 nM.

In the case of `COc1cc(-n2cnc(Nc3nc(-c4ccccc4C(N)=O)nc4sccc34)c2)cc(OC)c1OC` [Compound 157a, 2-(4-((1-(3,4,5-trimethoxyphenyl)-1H-imidazol-4-yl)amino)thieno[2,3-d]pyrimidin-2-yl)benzamide], the IC50 was under 100 nM.

For `COc1cc(-n2cnc(Nc3nc(N4CCC[C@H]4C(N)=O)nc4scnc34)c2)cc(OC)c1OC` [Compound 158b, (S)-1-(7-((1-(3,4,5-trimethoxyphenyl)-1H-imidazol-4-yl)amino)thiazolo[5,4-d]pyrimidin-5-yl)pyrrolidine-2-carboxamide], the IC50 is under 100 nM.

For the compound `COc1cc(-n2cnc(Nc3nc(N4CCC[C@H]4CO)c4ccn(S(=O)(=O)c5ccc(C)cc5)c4n3)c2)cc(OC)c1OC` [Compound 159b, (S)-(1-(7-tosyl-2-((1-(3,4,5-trimethoxyphenyl)-1H-imidazol-4-yl)amino)-7H-pyrrolo[2,3-d]pyrimidin-4-yl)pyrrolidin-2-yl)methanol], the half-maximal inhibitory concentration (IC50) is over 1000 nM.

For `COc1cc(-n2cnc(Nc3nc(N4CCC[C@H]4CO)c4cc[nH]c4n3)c2)cc(OC)c1OC` [Compound 159c, (S)-(1-(2-((1-(3,4,5-trimethoxyphenyl)-1H-imidazol-4-yl)amino)-7H-pyrrolo[2,3-d]pyrimidin-4-yl)pyrrolidin-2-yl)methanol], the 50% inhibitory concentration (IC50) was under 100 nM.

Consider `COc1cc(-n2cnc(Nc3nc(N4CCC[C@H]4CO)nc4ccn(S(=O)(=O)c5ccc(C)cc5)c34)c2)cc(OC)c1OC` [Compound 160c, (S)-(1-(5-tosyl-4-((1-(3,4,5-trimethoxyphenyl)-1H-imidazol-4-yl)amino)-5H-pyrrolo[3,2-d]pyrimidin-2-yl)pyrrolidin-2-yl)methanol], for which the half-inhibitory concentration (IC50) was over 1000 nM.

Consider `COc1cc(-n2cnc(Nc3nc(N4CCC[C@H]4CO)nc4cc[nH]c34)c2)cc(OC)c1OC` [Compound 160d, (S)-(1-(4-((1-(3,4,5-trimethoxyphenyl)-1H-imidazol-4-yl)amino)-5H-pyrrolo[3,2-d]pyrimidin-2-yl)pyrrolidin-2-yl)methanol], for which the concentration for half-maximal inhibition (IC50) is under 100 nM.

Regarding `COc1cc(-n2cnc(Nc3nc(N4CCC[C@H]4C(N)=O)nc4cccnc34)c2)cc(OC)c1OC` [Compound 161a, (S)-1-(4-((1-(3,4,5-trimethoxyphenyl)-1H-imidazol-4-yl)amino)pyrido[3,2-d]pyrimidin-2-yl)pyrrolidine-2-carboxamide], the IC50 was 100 to 1000 nM.

Regarding `COc1cc(-n2cnc(Nc3nc(N4CCC[C@H]4C(N)=O)nc4ccn(S(=O)(=O)c5ccc(C)cc5)c34)c2)cc(OC)c1OC` [Compound 162a, (S)-1-(5-tosyl-4-((1-(3,4,5-trimethoxyphenyl)-1H-imidazol-4-yl)amino)-5H-pyrrolo[3,2-d]pyrimidin-2-yl)pyrrolidine-2-carboxamide], the IC50 lay in the range of 100 to 1000 nM.

For `COc1cc(-n2cnc(Nc3nc(N4CCC[C@H]4C(N)=O)nc4cc[nH]c34)c2)cc(OC)c1OC` [Compound 162b, (S)-1-(4-((1-(3,4,5-trimethoxyphenyl)-1H-imidazol-4-yl)amino)-5H-pyrrolo[3,2-d]pyrimidin-2-yl)pyrrolidine-2-carboxamide], the IC50 is under 100 nM.

For `COc1cc(-n2cnc(Nc3nc(N4CCCC4)nc4c3ccn4S(=O)(=O)c3ccc(C)cc3)c2)cc(OC)c1OC` [Compound 163a, 2-(pyrrolidin-1-yl)-7-tosyl-N-(1-(3,4,5-trimethoxyphenyl)-1H-imidazol-4-yl)-7H-pyrrolo[2,3-d]pyrimidin-4-amine], the IC50 lay in the range of 100 to 1000 nM.
